For 14 molecules, EC50, CC50 and IC50 results are on record in patent US11021444B2, “Antiviral compounds” (priority 2013, dated 2021).

Data set [1] has as its system Respiratory Syncytial Virus (RSV) long strain. The data set can be described thus: microbe, parasite or virus in culture. The format is cell-based. The conditions noted are these: human respiratory syncytial virus, Tables A and B list compounds by EC50 band. Summed up:
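HEp-2 cells infected with 100 TCID50 virus per well, compounds in duplicate, 9-point 1/3 dilutions from 100 μM or 1 μM, 1% DMSO. After 5 days at 37 °C, cell viability (CPE protection) read by CCK-8 absorbance at 450 nm, 630 nm background.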

The nature of data set [2]: Cytotoxicity Determination (CCK-8, without addition of virus). The format is cell-based. The conditions noted are these: human, 50% cytotoxicity concentration (CC50). The procedure, abridged:
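HEp-2 cells were seeded at 1,500 cells/well one day before compound addition. Compounds were tested without virus in duplicate over 7 points from 100 μM in 1/2 steps, with 1% final DMSO, 5 days at 37 °C, 5% CO2. Viability was read by CCK-8 after 3-4 hours.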

A further data set addresses recombinant RSV complex (Human respiratory syncytial virus A, UniProt P28887). The data set can be described thus: RSV Polymerase Inhibition Assay. The data set is classed as biochemical. The procedure, abridged: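 10 nM recombinant RSV polymerase complex in Tris-HCl pH 7.5, 6 mM MgCl2 with RNA oligonucleotide template and radionucleotides, incubated 2 h at 30 °C with increasing inhibitor concentrations. Reaction stopped with EDTA; radiolabeled RNA product counted by scintillation.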

A further data set has as its system RSV replicon. The data set can be described thus: microbe, parasite or virus in culture. The conditions noted are these: human respiratory syncytial virus, read-out: EC50, the concentration of the drug required for reducing RSV replicon RNA by 50%. The data set is classed as cell-based. In general terms: Replicon systems follow genome replication, usually without infectious particles.

The mark [3] stands for this setting: HEp-2, 120 h, read-out: 50% effective concentration (EC50), HEp-2 cells infected with RSV long strain, 5 days, CCK-8 readout.

Molecules are shown by their SMILES. Where two headings read alike, the source gives them in different places.

Sequence of recombinant RSV complex (P28887 whole entry): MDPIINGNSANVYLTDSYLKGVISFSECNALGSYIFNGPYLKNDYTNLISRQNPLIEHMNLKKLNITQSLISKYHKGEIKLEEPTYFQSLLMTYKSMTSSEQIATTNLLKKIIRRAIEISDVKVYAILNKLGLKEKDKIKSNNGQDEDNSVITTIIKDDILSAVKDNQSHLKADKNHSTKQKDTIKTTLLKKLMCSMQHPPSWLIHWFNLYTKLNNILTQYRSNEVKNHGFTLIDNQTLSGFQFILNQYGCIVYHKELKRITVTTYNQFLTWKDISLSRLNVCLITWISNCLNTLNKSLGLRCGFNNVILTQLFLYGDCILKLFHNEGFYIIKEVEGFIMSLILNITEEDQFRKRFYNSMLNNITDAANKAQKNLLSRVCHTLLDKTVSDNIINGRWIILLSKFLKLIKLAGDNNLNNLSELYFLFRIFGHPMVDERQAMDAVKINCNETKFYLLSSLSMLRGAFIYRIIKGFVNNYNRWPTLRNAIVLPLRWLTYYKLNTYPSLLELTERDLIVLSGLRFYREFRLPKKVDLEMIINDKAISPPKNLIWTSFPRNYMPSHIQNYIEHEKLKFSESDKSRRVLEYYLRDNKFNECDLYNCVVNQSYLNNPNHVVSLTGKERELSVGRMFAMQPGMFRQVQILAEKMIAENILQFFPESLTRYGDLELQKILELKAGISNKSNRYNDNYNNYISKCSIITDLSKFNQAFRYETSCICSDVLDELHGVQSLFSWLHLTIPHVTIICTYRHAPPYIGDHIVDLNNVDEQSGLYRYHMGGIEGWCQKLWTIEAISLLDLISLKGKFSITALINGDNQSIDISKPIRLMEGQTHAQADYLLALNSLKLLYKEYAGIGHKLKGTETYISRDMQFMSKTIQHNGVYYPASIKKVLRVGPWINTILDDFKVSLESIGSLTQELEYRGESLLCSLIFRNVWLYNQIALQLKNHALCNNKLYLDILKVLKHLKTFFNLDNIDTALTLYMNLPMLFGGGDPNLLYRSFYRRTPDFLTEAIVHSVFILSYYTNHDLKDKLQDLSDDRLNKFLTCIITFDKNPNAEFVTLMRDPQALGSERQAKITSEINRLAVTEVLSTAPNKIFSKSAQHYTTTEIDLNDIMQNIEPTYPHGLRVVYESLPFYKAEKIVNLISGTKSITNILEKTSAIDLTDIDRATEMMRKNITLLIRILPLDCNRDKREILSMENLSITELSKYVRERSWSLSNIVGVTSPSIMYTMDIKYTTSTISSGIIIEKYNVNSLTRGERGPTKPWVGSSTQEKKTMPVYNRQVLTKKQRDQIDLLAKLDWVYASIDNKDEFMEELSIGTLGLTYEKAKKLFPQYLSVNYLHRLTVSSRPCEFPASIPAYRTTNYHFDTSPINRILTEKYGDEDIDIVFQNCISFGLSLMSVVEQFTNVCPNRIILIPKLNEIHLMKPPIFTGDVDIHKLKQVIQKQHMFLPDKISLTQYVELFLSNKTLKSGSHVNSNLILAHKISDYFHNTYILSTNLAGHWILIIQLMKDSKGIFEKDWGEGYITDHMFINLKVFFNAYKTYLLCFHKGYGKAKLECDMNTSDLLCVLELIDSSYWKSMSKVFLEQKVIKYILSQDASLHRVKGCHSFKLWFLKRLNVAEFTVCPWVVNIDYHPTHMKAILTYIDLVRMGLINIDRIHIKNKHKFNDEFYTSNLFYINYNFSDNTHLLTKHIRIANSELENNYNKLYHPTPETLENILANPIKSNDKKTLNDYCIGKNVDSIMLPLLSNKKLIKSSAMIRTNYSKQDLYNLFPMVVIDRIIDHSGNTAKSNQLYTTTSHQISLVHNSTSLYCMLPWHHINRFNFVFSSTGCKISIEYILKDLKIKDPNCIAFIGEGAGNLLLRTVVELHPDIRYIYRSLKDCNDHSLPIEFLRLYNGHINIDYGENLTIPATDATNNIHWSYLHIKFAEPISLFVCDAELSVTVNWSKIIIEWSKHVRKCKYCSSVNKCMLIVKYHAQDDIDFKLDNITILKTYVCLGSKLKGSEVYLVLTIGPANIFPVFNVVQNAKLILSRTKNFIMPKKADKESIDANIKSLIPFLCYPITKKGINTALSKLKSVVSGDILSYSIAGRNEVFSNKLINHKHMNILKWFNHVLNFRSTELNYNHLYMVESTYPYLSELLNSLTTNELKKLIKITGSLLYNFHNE
Sequence of recombinant RSV complex (P03421 whole entry, further chain): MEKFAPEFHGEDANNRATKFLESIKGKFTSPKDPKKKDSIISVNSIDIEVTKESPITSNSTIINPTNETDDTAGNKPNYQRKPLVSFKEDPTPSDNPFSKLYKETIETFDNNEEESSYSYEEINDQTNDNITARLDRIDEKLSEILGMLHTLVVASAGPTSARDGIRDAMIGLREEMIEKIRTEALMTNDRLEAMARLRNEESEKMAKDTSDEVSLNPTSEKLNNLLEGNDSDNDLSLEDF

`CCC1(N)COc2c1cc(C(O)(CNC(=O)c1ccc(OC3CC3)c(OC)c1)C(F)(F)F)nc2-c1ccc(F)cc1` (centres unmarked) [Compound 531]: the EC50 (in data set [1] (setting [3]); in the data set on RSV replicon) was below 1 µM each time. The CC50 (commonly the concentration at which the toxic effect on the cells reaches its halfway point) at 5 days in data set [2] was 10 to 100 µM. Further, the IC50 – broadly, the concentration needed to halve the response being measured – on recombinant RSV complex was below 1 µM.

As for `COc1cc(C(=O)NCC(O)(Cn2cccn2)c2cc3c(c(-c4ccc(F)c(Cl)c4)n2)OCC3(C)C)ccc1OC1CCNC1=O` (centres unmarked) [Compound 218], the EC50 (in data set [1] (setting [3]); in the data set with RSV replicon) was below 1 µM throughout. Further, the CC50 at 5 days in data set [2] was 10 to 100 µM. For the same molecule, the IC50 at recombinant RSV complex is below 1 µM.

As to `COc1cc(C(=O)NCC(O)(c2cc(C(C)(C)N)cc(-c3ccc(F)cc3)n2)C(F)(F)F)ccc1OC1CC1` (centres unmarked) [Compound 318], the EC50 (in data set [1] (setting [3]); with RSV replicon) was below 1 µM throughout. The molecule further had a CC50 at 5 days in data set [2] of 10 to 100 µM. Besides, the IC50 on recombinant RSV complex was below 1 µM.

Turning to `COc1ccc(C(=O)NCC(=O)c2nc(-c3csc4c(F)cccc34)c3ccccn23)cc1OC` [Compound 130], the EC50 in data set [1] (120 h, read-out: 50% effective concentration (EC50), HEp-2 cells infected with RSV long strain, 5 days, CCK-8 readout) is below 1 µM; with RSV replicon it was below 1 µM. Besides, in data set [2], the CC50 at 5 days fell in the range of 10 to 100 µM. The 50% inhibitory concentration (IC50) at recombinant RSV complex was below 1 µM.

Take `COc1cc(C(=O)NCC(O)(Cn2nccn2)c2ccc(OC)c(-c3ccc(F)c(Cl)c3)n2)ccc1OCCO` (centres unmarked) [Compound 193]: the EC50 (in data set [1] (setting [3]); in the data set on RSV replicon) was below 1 µM throughout. The molecule also came in with a CC50 at 5 days in data set [2] of 10 to 100 µM. The IC50 on recombinant RSV complex was below 1 µM.

On to `COc1cc(C(=O)NCC(O)(c2cc3c(c(-c4ccc(F)c(C(F)(F)F)c4)n2)OCC3(C)N)C(F)(F)F)ccc1CO[C@@H](C)O` (some centres unmarked) [Compound 665], for which the EC50 (in data set [1] (setting [3]); with RSV replicon) was below 1 µM each time. In data set [2], the CC50 at 5 days lay within 10 to 100 µM. Further, the IC50 on recombinant RSV complex is below 1 µM.

For the molecule `CNC(C)(C)c1cc(-c2ccc(F)c(Cl)c2)nc(C(O)(CNC(=O)c2ccc(OCC(N)=O)c(OC)c2)C(F)(F)F)c1` (centres unmarked) [Compound 487], the EC50 (in data set [1] (setting [3]); in the data set with RSV replicon) was below 1 µM throughout. In addition, the CC50 at 5 days in data set [2] lay within 10 to 100 µM. Besides, the IC50 at recombinant RSV complex was below 1 µM.

Turning to `COc1cc(C(=O)NCC(=O)c2cc3c(c(-c4ccc(F)c(Cl)c4)n2)OCCC3)ccc1OCCF` [Compound 303], the EC50 (in data set [1] (setting [3]); with RSV replicon) was below 1 µM in each case. This molecule also gave a CC50 at 5 days in data set [2] above 100 µM. Moreover, on recombinant RSV complex, the IC50 is below 1 µM.

For the molecule `C#CC(O)(CNC(=O)c1ccc(OCCF)c(OC)c1)c1ccc(OC)c(-c2ccc(F)c(Cl)c2)n1` (centres unmarked) [Compound 127], the EC50 is below 1 µM in data set [1] (setting [3]) and 1 to 50 µM with RSV replicon. Also, in data set [2], the CC50 at 5 days lay within 10 to 100 µM. The IC50 on recombinant RSV complex is below 1 µM.

In the case of `COc1cc(C(=O)NCC(O)(c2ccc(OC)c(-c3ccc(F)c(Cl)c3)n2)C(C)C)ccc1OCCF` (centres unmarked) [Compound 125], the EC50 (in data set [1] (setting [3]); with RSV replicon) was below 1 µM throughout. In data set [2], this molecule registered a CC50 at 5 days of 10 to 100 µM. Further, the IC50 on recombinant RSV complex is below 1 µM.

In the case of `COc1cc(C(=O)NCC(O)(c2cc(C(C)(C)NC3CCC3)cc(-c3ccc(F)c(Cl)c3)n2)C(F)(F)F)ccc1OC1CC1` (centres unmarked) [Compound 575], the EC50 (in data set [1] (setting [3]); in the data set on RSV replicon) was below 1 µM throughout. Moreover, in data set [2], the CC50 at 5 days lay within 10 to 100 µM. The IC50 on recombinant RSV complex was below 1 µM.

As to `COc1cc(C(=O)NCC(C)(O)c2ccc(OC)c(-c3ccc(F)c(Cl)c3)n2)ccc1OCCF` (centres unmarked) [Compound 119], the EC50 (in data set [1] (setting [3]); in the data set on RSV replicon) was below 1 µM in each case. This molecule also returned a CC50 at 5 days in data set [2] of 10 to 100 µM. Further, the IC50 at recombinant RSV complex was below 1 µM.

Consider `COc1ccc(C(O)(CO)CNC(=O)c2cc(OC)c3ncccc3c2)nc1-c1ccc(F)c(Cl)c1` (centres unmarked) [Compound 453], for which the EC50 (in data set [1] (setting [3]); in the data set with RSV replicon) was below 1 µM each time. The molecule further returned a CC50 at 5 days in data set [2] of 10 to 100 µM. Further, the IC50 on recombinant RSV complex is below 1 µM.

On to `COc1cc(C(=O)NCC(O)(c2cc(C(C)(N)CF)cc(-c3ccc(F)c(Cl)c3)n2)C(F)(F)F)ccc1OC1CC1` (centres unmarked) [Compound 534], for which the EC50 (in data set [1] (setting [3]); in the data set with RSV replicon) was below 1 µM throughout. Also, in data set [2], the CC50 at 5 days was 10 to 100 µM. In addition, on recombinant RSV complex, the IC50 was below 1 µM.
